Source: paper PMC4658139 (PLoS ONE, 2015)
Like-named read-outs stand apart in the source and are kept apart here.

Experiments:
[1] = tested on: porcine brain capillary endothelial cells (PBCEC)
PBCEC monolayer [2] = format: cell-based, porcine
PBCEC monolayer [3] = tested on: PBCEC monolayer
[4] = pig, in vivo, 0.6 mg; cited from earlier work
[5] = pig, in vivo; cited from earlier work
PBCEC monolayer [6] = settings: pig
in vitro = settings: pig
macrophages = settings: cited from earlier work
PBCEC monolayer [7] = settings: pig; remark: listed apart in the source
Sprague-Dawley rats [8] = settings: rat, in vivo, po; cited from earlier work
Sprague-Dawley rats [9] = settings: rat, in vivo, po; cited from earlier work; remark: listed apart in the source
dendric cells = settings: cited from earlier work
[10] = tested on: normal human astrocytes (NHA); settings: read-out: IC50, cytotoxic effects; cited from earlier work

For CC(=O)O[C@@H]1C[C@]2(C)[C@@]3(CO)[C@H](O)C(=O)C(C)=C[C@H]3O[C@H]1[C@@]21CO1 [3-AcDON, 3-acetyldeoxynivalenol], the “effect in CCK-8 assay (dehydrogenase activity), in words” value [1] was “significant increase in dehydrogenase activity”, the “change of electrical capacitance c CL, in words” value (PBCEC monolayer [2]) was “Neither 3-AcDON, nor MON showed significant changes” and the “relative TEER after 48 h” value (PBCEC monolayer [2]) was 63±9%. The “concentration in the apical compartment” value (PBCEC monolayer [3]; pig) was 174 ± 20 nM, the “concentration in the basolateral compartment” value (PBCEC monolayer [3]; pig) was 198 ± 16 nM and the “enrichment in one compartment / active transport, in words” value (PBCEC monolayer [3]; pig) was “an active transfer or a noteworthy enrichment of DON or 3-AcDON can be excluded”.

In the case of CC1=C[C@H]2O[C@@H]3[C@H](O)C[C@](C)([C@@]2(CO)[C@H](O)C1=O)[C@]31CO1 [DON, deoxynivalenol], the systemic bioavailability [4] is listed as 48–65%, the “effect in CCK-8 assay (dehydrogenase activity), in words” value [1] is listed as “significant increase in dehydrogenase activity” and the “electrical capacitance c CL after 48 h” value (PBCEC monolayer [2]) is listed as 81±2%. For the same compound, the “enrichment in one compartment / active transport, in words” value (PBCEC monolayer [3]) was “no enrichment in the apical or the basolateral compartment was detected”, the “concentration in the apical compartment” value (PBCEC monolayer [3]; pig) was 211 ± 15 nM and the “concentration in the basolateral compartment” value (PBCEC monolayer [3]; pig) was 199 ± 14 nM. For the same compound, the “time of maximum concentration in CSF and blood” value [5] was 4.5 h.

In the case of O=c1cc(O)c1=O [MON, moniliformin], the “amount detected in the basolateral compartment” value (PBCEC monolayer [6]) is reported as 27±6%, the “amount recovered in the apical compartment” value (PBCEC monolayer [6]) is reported as 76±12% and the Papp A→B (in vitro) is reported as 1.07 ± 0.23 ×10⁻⁶ cm/s. The “effect on cellular viability, in words” value [1] was “no significant effects on the cellular viability”, the “change of electrical capacitance c CL, in words” value (PBCEC monolayer [2]) was “Neither 3-AcDON, nor MON showed significant changes” and the “relative TEER after 48 h” value (PBCEC monolayer [2]) was 94±15%. The “effect on viability of macrophages, in words” value (macrophages) was “does not reduce the viability of macrophages”, the “p c(14C sucrose), sucrose permeability of the monolayer after mycotoxin incubation” value (PBCEC monolayer [7]) was 0.19±0.05 and the “enrichment in one compartment / active transport, in words” value (PBCEC monolayer [3]) was “not enriched in any compartment”. For the same compound, the “concentration in the apical compartment” value (PBCEC monolayer [3]; pig) was 237 ± 23 nM, the “concentration in the basolateral compartment” value (PBCEC monolayer [3]; pig) was 228 ± 27 nM and the “administered dose detected in feces” value (Sprague-Dawley rats [8]) was 2%. For the same compound, the “administered dose excreted via urine” value (Sprague-Dawley rats [8]) was 20.2-31.5%, the “lowest observed adverse effect level (LOAEL)” value (Sprague-Dawley rats [8]) was 3 mg/kg body weight and the LD50 cut-off value (Sprague-Dawley rats [9]) was 25 mg/kg body weight. The “administered dose detected in urine” value (Sprague-Dawley rats [9]) was 38%, the “total recovery in feces” value (Sprague-Dawley rats [9]) was “less than 1%” and the “total recovery in urine” value (Sprague-Dawley rats [9]) was 42%. The “reduction of cellular viability” value (dendric cells) was 20%.

In the case of CC(=O)OC[C@]12C[C@H](OC(=O)CC(C)C)C(C)=C[C@H]1O[C@@H]1[C@H](O)[C@@H](OC(C)=O)[C@@]2(C)[C@]12CO2 [T-2 toxin, reference compound], the cellular viability ([1]; 10 µM) is given as under 2% and the IC50 [10] is given as 24 ± 4.5 nM.
